Biological target: T1, mKCNK3 (Mus musculus, UniProt O35111)
T1 construct: expressed in transfected cells; host or cells: Xenopus laevis oocytes injected with cRNA (plasmid pSGEM)
Experiment: Two-electrode voltage clamp on Xenopus oocytes expressing mKCNK3
Type: cell-based
Conditions: 1–1000 μM
From the text: Human KCNK3 (TASK-1, K2P3.1) cloned into the expression vector pIRES-CD8 was a gift from Dr. Fabrice Duprat (Institut National de la Santé et de la Recherche Médicale, Antipolis, France). Human KCNK18 (hTRESK, K2P18.1), cloned into the plasmid pEXO, was a gift from Dr. P. Enyedi (Semmelweis University, Budapest, Hungary). These plasmids were linearized with the restriction enzymes BamHI and XbaI, respectively, and then used as templates for in vitro transcription. Human KCNK9 (hTASK-3, K2P9.1) cloned into the expression vector pCR4-TOPO, was purchased from Imagenes (Berlin, Germany). The plasmid was linearized with the restriction enzyme SspI, to generate a linear cDNA template for in vitro transcription. mKCNK3 was isolated from mouse heart by standard procedures and inserted into pSGEM. mKCNK9 and mKCNK18 were kindly provided by Dr. D. Bayliss (University of Virginia, Charlottesville, VA, United States) and Prof. Dr. P. Enyedi (Semmelweis University, Budapest, Hungary). Both channels were subcloned into pSGEM. The pSGEM plasmids were subsequently linearized with the restriction enzyme PacI. The capped RNAs were synthesized in the presence of the capping analog m7G(5′)ppp(5′)G using the AmpliCap-T7 Message Maker kit (Epicentre, Madison, WI, United States). The cRNA was dissolved in nuclease-free water to obtain a final concentration of 100 ng/μL. […]

T1 sequence (O35111 whole entry): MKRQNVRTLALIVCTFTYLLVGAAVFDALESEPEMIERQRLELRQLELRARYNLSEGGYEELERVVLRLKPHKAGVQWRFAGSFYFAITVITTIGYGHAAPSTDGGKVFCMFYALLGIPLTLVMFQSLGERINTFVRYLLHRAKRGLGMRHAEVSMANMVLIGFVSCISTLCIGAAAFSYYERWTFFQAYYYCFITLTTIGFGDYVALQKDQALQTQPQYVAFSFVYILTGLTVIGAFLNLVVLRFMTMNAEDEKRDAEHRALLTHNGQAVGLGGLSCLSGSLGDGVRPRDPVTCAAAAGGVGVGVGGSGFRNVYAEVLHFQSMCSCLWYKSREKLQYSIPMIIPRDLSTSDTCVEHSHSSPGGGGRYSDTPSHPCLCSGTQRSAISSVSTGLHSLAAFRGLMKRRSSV

`O=C(/C=C/C=C/c1ccc2c(c1)OCO2)N1CCCCC1` [1a, piperine] gave an IC50 of 30 ± 2.8 µM.

From paper PMC5483439, “The Effect of Pungent and Tingling Compounds from Piper nigrum L. on Background K^+ Currents” (Frontiers in Pharmacology, 2017)
